# According to PubChem BioAssay AID330 (DTP/NCI, 2004):
# “And” between values parts separate entries of the source, which are not always exact repeats. Equal values may be shown once. Toxic doses and inconclusive results are not listed.
# Test system: P388 leukemia ip, CD2F1 mice, survival T/C
# Assay: NCI In Vivo Anticancer Drug Screen. Data for tumor model P388 Leukemia (intraperitoneal) in CD2F1 (CDF1) mice
# Details: endpoint: median survival time, higher = longer survival
# Outline: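 Mice carrying the transplanted tumor received test compound or vehicle. Survival was recorded in each group, and the value is the treated-group measurement divided by that of the vehicle-treated control group.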
# [1] = dose: 50.0 mg/kg/injection, schedule: Q01DX009 (ip), vehicle: Klucel (hydroxypropylcellulose) (HPC)
# [2] = dose: 100.0 mg/kg/injection, schedule: Q01DX009 (ip), vehicle: Klucel (hydroxypropylcellulose) (HPC)
# [3] = dose: 200.0 mg/kg/injection, schedule: Q01DX009 (ip), vehicle: Klucel (hydroxypropylcellulose) (HPC)
# [4] = dose: 50.0 mg/kg/injection, schedule: Q01DX009 (ip), vehicle: saline with Tween-80
# [5] = dose: 100.0 mg/kg/injection, schedule: Q01DX009 (ip), vehicle: saline with Tween-80
# [6] = dose: 60.0 mg/kg/injection, schedule: Q01DX005 (ip), vehicle: saline with Tween-80
# [7] = dose: 120.0 mg/kg/injection, schedule: Q01DX005 (ip), vehicle: saline with Tween-80
# [8] = dose: 240.0 mg/kg/injection, schedule: Q01DX005 (ip), vehicle: saline with Tween-80
# [9] = dose: 25.0 mg/kg/injection, schedule: Q01DX009 (ip), vehicle: other
# [10] = dose: 50.0 mg/kg/injection, schedule: Q01DX009 (ip), vehicle: other
# [11] = dose: 100.0 mg/kg/injection, schedule: Q01DX009 (ip), vehicle: other
compound,measurement,setting,value
COc1ccc2c(c1)C(c1ccccc1)SC(c1ccccc1)=C2 (centres undefined),T/C,[1],107 % of control
same,T/C,[2],100 % of control
same,T/C,[3],99 % of control
c1ccc(C2=NCN3CC23c2ccccc2)cc1 (centres undefined),T/C,"dose: 12.5 mg/kg/injection, schedule: Q01DX009 (ip), vehicle: saline with Tween-80",98 % of control
same,T/C,"dose: 25.0 mg/kg/injection, schedule: Q01DX009 (ip), vehicle: saline with Tween-80",98 % of control
same,T/C,[4],99 % of control
same,T/C,[5],95 % of control
C1CCc2c(-c3n[nH]c4c3CCCC4)n[nH]c2C1,T/C,[6],103 % of control
same,T/C,[7],101 % of control
same,T/C,[8],100 % of control
O=C(O)C1SCSC1C(=O)O (centres undefined),T/C,[9],94 % of control
same,T/C,[10],100 % of control
same,T/C,[11],90 % of control
same,T/C,"dose: 200.0 mg/kg/injection, schedule: Q01DX009 (ip), vehicle: other",98 % of control
COC(=O)c1c(-c2ccc3c(c2)OCO3)c(C=O)n(C)c1C,T/C,"dose: 100.0 mg/kg/injection, schedule: Q04DX002 (ip), vehicle: saline with Tween-80",90 % of control
same,T/C,"dose: 200.0 mg/kg/injection, schedule: Q04DX002 (ip), vehicle: saline with Tween-80",87 % of control
same,T/C,"dose: 400.0 mg/kg/injection, schedule: Q04DX002 (ip), vehicle: saline with Tween-80",89 % of control
OC(COc1cccc2ccccc12)CN(CCCl)CCCl (centres undefined),T/C,"dose: 1.25 mg/kg/injection, schedule: Q01DX009 (ip), vehicle: saline",122 % of control
same,T/C,"dose: 20.0 mg/kg/injection, schedule: Q01DX009 (ip), vehicle: saline",91 % of control
Cc1nn(-c2nc(-c3ccccc3)cs2)c(C)c1C,T/C,[1],98 % of control
same,T/C,[2],96 % of control
same,T/C,[3],101 % of control
COc1cc2c(cc1OC)[C@H]1[C@H](C)c3ccc4c(c3CN1CC2)OCO4,T/C,"dose: 12.5 mg/kg/injection, schedule: Q04DX002 (ip), vehicle: Klucel (hydroxypropylcellulose) (HPC)",97 % of control
same,T/C,"dose: 25.0 mg/kg/injection, schedule: Q04DX002 (ip), vehicle: Klucel (hydroxypropylcellulose) (HPC)",95 % of control
same,T/C,"dose: 50.0 mg/kg/injection, schedule: Q04DX002 (ip), vehicle: Klucel (hydroxypropylcellulose) (HPC)",103 % of control and 106 % of control
COc1cc(N(CCCl)CCCl)c(OC)cc1C=Nc1cccc(Br)c1,T/C,"dose: 6.25 mg/kg/injection, schedule: Q01DX009 (ip), vehicle: saline",113 % of control
same,T/C,"dose: 12.5 mg/kg/injection, schedule: Q01DX009 (ip), vehicle: suspension in saline",116 % of control
same,T/C,"dose: 25.0 mg/kg/injection, schedule: Q01DX009 (ip), vehicle: saline",167 % of control
same,T/C,"dose: 25.0 mg/kg/injection, schedule: Q01DX009 (ip), vehicle: suspension in saline",124 % of control
same,T/C,"dose: 50.0 mg/kg/injection, schedule: Q01DX009 (ip), vehicle: saline",254 % of control
same,T/C,"dose: 50.0 mg/kg/injection, schedule: Q01DX009 (ip), vehicle: suspension in saline",150 % of control
CCOCCC(N=NC(=S)NNC)c1ccccc1 (centres undefined),T/C,"dose: 100.0 mg/kg/injection, schedule: Q01DX001 (ip), vehicle: saline",100 % of control
same,T/C,"dose: 200.0 mg/kg/injection, schedule: Q01DX001 (ip), vehicle: saline",94 % of control
same,T/C,"dose: 400.0 mg/kg/injection, schedule: Q01DX001 (ip), vehicle: saline",93 % of control
ClC1=CCCC(C(Br)Br)C1 (centres undefined),T/C,[1],99 % of control
same,T/C,[2],100 % of control
same,T/C,[3],102 % of control
Cc1noc(NS(=O)(=O)c2ccc(N=Nc3cc(N=Nc4ccc(S(=O)(=O)Nc5onc(C)c5C)cc4)c4c(NC(=O)C(Cl)Cl)cccc4c3OC(=O)C(Cl)Cl)cc2)c1C (tested in a mixture with another compound),T/C,[4],100 % of control and 106 % of control
same,T/C,[5],104 % of control and 106 % of control
Cc1ccc(S(=O)(=O)N(C)c2ccc(Cl)cc2C2=NCCc3ccccc32)cc1,T/C,[1],100 % of control
same,T/C,[2],101 % of control
same,T/C,[3],101 % of control
CC1(C)C2=CCCC3(OCCO3)C2(C)CCC1O (centres undefined),T/C,"dose: 100.0 mg/kg/injection, schedule: Q04DX003 (ip), vehicle: saline with Tween-80",90 % of control
same,T/C,"dose: 200.0 mg/kg/injection, schedule: Q04DX003 (ip), vehicle: saline with Tween-80",90 % of control
same,T/C,"dose: 400.0 mg/kg/injection, schedule: Q04DX003 (ip), vehicle: saline with Tween-80",90 % of control
O=C(CC1=NC2NN(c3ccccc3)C(=O)C2=C1CC(=O)c1ccc(F)cc1)c1ccc(F)cc1 (centres undefined),T/C,[6],98 % of control
same,T/C,[7],97 % of control
same,T/C,[8],97 % of control
CSc1ncnc2c1ncn2C(SC)C(OC(C)=O)C(OC(C)=O)C(OC(C)=O)C(COC(C)=O)OC(C)=O (centres undefined),T/C,"dose: 50.0 mg/kg/injection, schedule: Q01DX005 (ip), vehicle: saline with Tween-80",96 % of control
same,T/C,"dose: 100.0 mg/kg/injection, schedule: Q01DX005 (ip), vehicle: saline with Tween-80",97 % of control
same,T/C,"dose: 200.0 mg/kg/injection, schedule: Q01DX005 (ip), vehicle: saline with Tween-80",102 % of control
S=c1cc[nH]c2ccccc12,T/C,"dose: 6.25 mg/kg/injection, schedule: Q01DX009 (ip), vehicle: other",104 % of control
same,T/C,"dose: 12.5 mg/kg/injection, schedule: Q01DX009 (ip), vehicle: other",104 % of control
same,T/C,[9],96 % of control
same,T/C,[10],112 % of control
same,T/C,[11],110 % of control
CCCCCCCCCCCCCCC(O)c1cccc(OC)c1 (centres undefined),T/C,"dose: 7.5 mg/kg/injection, schedule: Q01DX009 (ip), vehicle: saline with Tween-80",109 % of control
same,T/C,"dose: 15.0 mg/kg/injection, schedule: Q01DX009 (ip), vehicle: saline with Tween-80",113 % of control
same,T/C,"dose: 30.0 mg/kg/injection, schedule: Q01DX009 (ip), vehicle: saline with Tween-80",109 % of control
O=C(O)C1CCCCC1c1c2ccc(=O)c(O)c-2oc2c(O)c(O)ccc12 (centres undefined),T/C,"dose: 15.0 mg/kg/injection, schedule: Q01DX005 (ip), vehicle: saline with Tween-80",102 % of control
same,T/C,"dose: 30.0 mg/kg/injection, schedule: Q01DX005 (ip), vehicle: saline with Tween-80",102 % of control and 105 % of control
same,T/C,[6],110 % of control and 111 % of control and 119 % of control
same,T/C,[7],107 % of control and 111 % of control and 112 % of control
same,T/C,[8],121 % of control
COc1c2ccoc2cc2oc(COC3OC(CO)C(O)C(O)C3O)cc(=O)c12 (centres undefined),T/C,"dose: 12.5 mg/kg/injection, schedule: Q01DX005 (ip), vehicle: saline",100 % of control
same,T/C,"dose: 25.0 mg/kg/injection, schedule: Q01DX005 (ip), vehicle: saline",108 % of control
same,T/C,"dose: 50.0 mg/kg/injection, schedule: Q01DX005 (ip), vehicle: saline",106 % of control and 108 % of control
O=c1[nH]nc(NCCCCO)c2ccccc12,T/C,[4],95 % of control
same,T/C,[5],95 % of control
same,T/C,"dose: 200.0 mg/kg/injection, schedule: Q01DX009 (ip), vehicle: saline with Tween-80",91 % of control
COc1cc2c[n+](C)c3c4cc(OC)c(OCc5ccccc5)cc4c(OCc4ccccc4)cc3c2cc1OC,T/C,"dose: 3.12 mg/kg/injection, schedule: Q01DX005 (ip), vehicle: Klucel (hydroxypropylcellulose) (HPC)",100 % of control
same,T/C,"dose: 6.25 mg/kg/injection, schedule: Q01DX005 (ip), vehicle: Klucel (hydroxypropylcellulose) (HPC)",100 % of control
same,T/C,"dose: 12.5 mg/kg/injection, schedule: Q01DX005 (ip), vehicle: Klucel (hydroxypropylcellulose) (HPC)",98 % of control
C#CCOC(=O)C(Cl)(Cl)Cl,T/C,"dose: 100.0 mg/kg/injection, schedule: Q04DX003 (ip), vehicle: saline",107 % of control
same,T/C,"dose: 200.0 mg/kg/injection, schedule: Q04DX003 (ip), vehicle: saline",115 % of control
CC(=O)OC(C)(C)/C=C/C(=O)[C@](C)(O)[C@H]1[C@H](O)C[C@@]2(C)[C@@H]3CC=C4[C@@H](C[C@H](O)[C@H](O)C4(C)C)[C@]3(C)C(=O)C[C@]12C,T/C,"dose: 5.0 mg/kg/injection, schedule: Q01DX009 (ip), vehicle: saline with Tween-80",107 % of control
same,T/C,"dose: 10.0 mg/kg/injection, schedule: Q01DX009 (ip), vehicle: saline with Tween-80",107 % of control
same,T/C,"dose: 20.0 mg/kg/injection, schedule: Q01DX009 (ip), vehicle: saline with Tween-80",112 % of control
O=c1[nH]c(=O)n(CC(O)CO)cc1/C=C/Br (centres undefined),T/C,"dose: 100.0 mg/kg/injection, schedule: Q01DX001 (ip), vehicle: saline with Tween-80",106 % of control
same,T/C,"dose: 200.0 mg/kg/injection, schedule: Q01DX001 (ip), vehicle: saline with Tween-80",101 % of control
same,T/C,"dose: 400.0 mg/kg/injection, schedule: Q01DX001 (ip), vehicle: saline with Tween-80",100 % of control
CC(C)C(C=O)C(O)(C(F)(F)F)C(F)(F)Cl (centres undefined),T/C,"dose: 12.5 mg/kg/injection, schedule: Q04DX003 (ip), vehicle: saline with Tween-80",100 % of control
same,T/C,"dose: 25.0 mg/kg/injection, schedule: Q04DX003 (ip), vehicle: saline with Tween-80",90 % of control
same,T/C,"dose: 50.0 mg/kg/injection, schedule: Q04DX003 (ip), vehicle: saline with Tween-80",95 % of control
